Measurements taken from paper PMC4926326, “Synthesis, Biological Activity, and Apoptotic Properties of NO-Donor/Enmein-Type ent-Kauranoid Hybrids” (International Journal of Molecular Sciences, 2016).
Values after ≈ are worked out from the molar mass of the structure shown.

Columns and labels:
[1] = tested on: Bacillus subtilis (CMCC 63501); experiment: Antibacterial assay, microbroth dilution MIC; type: cell-based; conditions: Bacillus subtilis, CMCC63501; 35 °C, 18 h; read-out: MIC B. subtilis
Description: (§1) The antibacterial activity of NO donor/enmein-type ent-kauranoid hybrids 9a–i against the Gram-negative bacterium Escherichia coli (ATCC 25922), Gram-positive bacterium Staphylococcus aureus (ATCC 29213) and Bacillus subtilis (CMCC 63501), and the fungus Monilia albicans (ATCC 10231) was first disclosed and summarized in Table 1. […] Thus, the introduction of NO-donor substituent groups at the 14-position of enmein-type 6,7-seco-ent-kauranoid could improve antimicrobial activity against S. aureus and B. subtilis.
(§2) The minimal inhibitory concentrations (MICs) were carried out by microbroth dilution method described by the Clinical Laboratory Standards Institute. A stock solution of all the target compounds was prepared with DMSO-medium (1:2), and then graded quantities of the test compounds were diluted with medium. The specified concentration suspension of fungus and bacterium contained approximately 10^3, and 10^5 CFU/mL was added into microtitration plates. The inoculated 96-well plates were incubated at 35 °C for 18 h. MIC was defined as the lowest concentrations that prevented visible growth of the bacteria.

[2] = tested on: Staphylococcus aureus (ATCC 29213); experiment: Antibacterial assay, microbroth dilution MIC; type: cell-based; conditions: Staphylococcus aureus, ATCC29213; 35 °C, 18 h; read-out: MIC S. aureus
Description: as §1, §2

[3] = tested on: Escherichia coli (ATCC 25922); experiment: Antibacterial assay, microbroth dilution MIC; type: cell-based; conditions: Escherichia coli, ATCC25922; 35 °C, 18 h; read-out: MIC E. coli
Description: as §1, §2

[4] = tested on: Monilia albicans (ATCC 10231); experiment: Antifungal assay, microbroth dilution MIC; type: cell-based; conditions: Candida albicans, ATCC10231; 35 °C, 18 h; read-out: MIC M. albicans
Description: as §1, §2

Bel-7402 cells [5] = experiment: Cell cycle distribution by PI staining and flow cytometry; type: cell-based, human; conditions: 48 h, control 25.51%
Description: Cell cycle arrest is an important sign for inhibition of proliferation and the series of events that take place in a cell leading to its division and replication. […] As the inhibitory effect of 9f on cell proliferation was observed, we next assessed the effect on the cell cycle distribution of Bel-7402 cells by flow cytometry (Figure 2). […] Compound 9f could influence Bel-7402 cell cycle progression at low micromolar concentrations in a dose-dependent manner.
Bel-7402 cells (5.0 × 10^3 cells/well) were plated in 6-well plates and incubated for 24 h, and then incubated with different concentrations (0.25, 0.5 and 1 μM) of 9f at 37 °C for 48 h. After 48 h treatment, cells were treated with 70% ethanol and RNase, sequentially, and stained with PI [34]. Cellular DNA content was measured by a flow cytometer for cell cycle distribution analysis.

Bel-7402 cells [6] = experiment: Mitochondrial membrane potential, JC-1 staining, flow cytometry; type: cell-based, human; conditions: 48 h, 0 μM 4.62%
Procedure: In the field of cancer, cellular apoptosis plays a very important role. The loss of mitochondrial membrane potential is a key event during drug-induced apoptosis. In order to investigate the mitochondria related effect of 9f, the fluorescent probe JC-1 (Keygen, KGA601, Nanjing, China) was used to detect the changes on mitochondrial membrane potential. Before Bel-7402 cells were stained with JC-1, cells were incubated with 0, 0.15, 0.3, and 0.6 μM of 9f. Then, the flow cytometry analysis was carried out to determine the cell numbers with collapsed mitochondria in different cell groups (Figure 4).
Bel-7402 cells were cultured in six-well plates after treatment with 9f or vehicles for 48 h. The cells were cells were collected by trypsinization, washed with PBS (Sigma Chemical Co., Shanghai, China) and stained according to the manufacturer’s instruction (Keygen, KGA601, Nanjing, China) with the lipophilic cationic dye JC-1. The flow cytometry analysis was carried out to monitor the percentage of cells with healthy or collapsed mitochondrial membrane potentials.

[7] = tested on: human normal liver cells L-02; experiment: MTT assay on normal cells; type: cell-based; conditions: MTT, 72 h, normal liver cells, mean ± SD of three experiments, read-out: IC50 L-02
Procedure: (§3) The antiproliferative activity of 9a–i against four human cancer cell lines K562 leukemia cell line, MGC-803 gastric cancer cell line, CaEs-17 esophageal cancer cell line, and Bel-7402 hepatoma cell line, and human normal liver cells L-02 was evaluated by MTT assay (Table 2).
(§4) MTT assay was developed to monitor mammalian cell survival and proliferation in vitro [32]. CaEs-17 cells (K562, Bel-7402 and MGC-803 cells) from American Type Culture Collection (ATCC, Manassas, VA, USA) were cultivated in RPMI-1640 medium supplemented with 5% fetal bovine serum (v/v), 100 U/mL penicillin, and […] streptomycin. Cells (5 × 10^4 cell/mL) at the log phase of their growth cycle were added to each well of a 96-well plate (100 µL/well) and incubated for 24 h at 37 °C in a humidified atmosphere of 5% CO2. Then, cells were treated with or without test compounds in different concentrations. After 72 h, 5 mg/mL MTT solution (20 µL per well) was added. Cells were incubated at 37 °C. After 4 h, MTT solution was removed and DMSO was added to each well (150 µL). Ten minutes later at room temperature, the optical density (OD) values were measured at the wavelength of 490 nm on a Microplate Reader NO. 550 (BIO-RAD Instruments Inc., Hercules, CA, USA). In this experiment, 10 µg/mL of Taxol was used as the positive control and 0.1% DMSO was used as the negative reference.

[8] = tested on: CaEs-17 esophageal cancer cell line; experiment: MTT antiproliferative assay; type: cell-based; conditions: Homo sapiens, CaEs17; MTT, 72 h, mean ± SD of three experiments; read-out: IC50 CaEs-17
Procedure: as §3, §4

Bel-7402 cells [9] = experiment: Apoptosis by Annexin-V and PI double staining, flow cytometry; type: cell-based, human; conditions: 72 h; for total percentage of apoptotic cells (early and late, Q2 + Q4): vehicle 7.88%
Procedure: To examine the potent cancer cell antiproliferative effect of 9f on Bel-7402 cells, the number of apoptotic cells was monitored using flow cytometry. The total percentage of apoptotic cells (early and late, Q2 + Q4) was 7.88% treated with a vehicle alone.
Bel-7402 cells were incubated with different concentrations (0.25, 0.5 and 1 μM) of 9f for 72 h. Then, Annexin-V and PI double staining was used to detect apoptotic cells to analyze apoptosis according to the manufacturer’s instructions by flow cytometry.

[10] = tested on: MGC-803 gastric cancer cell line; experiment: MTT antiproliferative assay; type: cell-based, human; conditions: Homo sapiens, MGC-803, 72 h, MTT, 72 h, mean ± SD of three experiments; read-out: IC50 MGC-803
Procedure: as §3, §4

[11] = tested on: Bel-7402 hepatoma cell line; experiment: MTT antiproliferative assay; type: cell-based, human
Procedure: as §3, §4

K562 leukemia cell line = experiment: MTT antiproliferative assay; type: cell-based, human; conditions: Homo sapiens, K562, 72 h, MTT, 72 h, mean ± SD of three experiments; read-out: IC50 K562
Procedure: as §3, §4

MIC [1]: 64 µg/mL (≈ 80.7 µM)
MIC [2]: 32 µg/mL (≈ 40.4 µM)
MIC [3]: > 100 µg/mL
MIC [4]: > 100 µg/mL
melting point: 128 to 130 °C
IC50 [8]: 3600 ± 120 nM
IC50 [10]: 1110 ± 50 nM
IC50 ([11]; Homo sapiens, Bel-7402, MTT, 72 h, mean ± SD of three experiments, read-out: IC50 Bel-7402): 720 ± 40 nM
IC50 (K562 leukemia cell line): 1680 ± 120 nM
SMILES: C=C1C(=O)[C@@]23C(=O)O[C@H]4CCC(C)(C)[C@H]5[C@H](O)OC[C@@]45[C@@H]2CC[C@@H]1[C@H]3OC(=O)c1ccccc1C(=O)OCCCOc1no[n+]([O-])c1S(=O)(=O)c1ccccc1 [Compound 9f]
cells in S phase (Bel-7402 cells [5]; 0.25 μM): 31.78%
cells in S phase (Bel-7402 cells [5]; 0.5 μM): 45.33%
cells in S phase (Bel-7402 cells [5]; 1 μM): 49.78%
percentage of apoptotic cells (collapsed mitochondria, JC-1) (Bel-7402 cells [6]; 0.15 μM): 8.81%
percentage of apoptotic cells (collapsed mitochondria, JC-1) (Bel-7402 cells [6]; 0.3 μM): 21.82%
percentage of apoptotic cells (collapsed mitochondria, JC-1) (Bel-7402 cells [6]; 0.6 μM): 25.98%
IC50 [7]: 18800 ± 1250 nM
apoptotic cells, fold of control group (Bel-7402 cells [9]; 0.25 μM): 2.76 fold
total percentage of apoptotic cells (early and late, Q2 + Q4) (Bel-7402 cells [9]; 0.25 μM): 21.74%
apoptotic cells, fold of control group (Bel-7402 cells [9]; 0.5 μM): 4.54 fold
total percentage of apoptotic cells (early and late, Q2 + Q4) (Bel-7402 cells [9]; 0.5 μM): 35.78%
apoptotic cells, fold of control group (Bel-7402 cells [9]; 1 μM): 8.01 fold
total percentage of apoptotic cells (early and late, Q2 + Q4) (Bel-7402 cells [9]; 1 μM): 63.15%
SI (selectivity index) ([11]; SI = IC50, L-02/IC50, Bel-7402): 26.1
